# Patent publication US9073985B2, “Methods and products for treating proliferative diseases” (The Regents of the University of Colorado, a body corporate, priority 2008, dated 2015)
# Tested on: melanoma cells
# Assay: In vitro treatment of tumor cells in culture, flow cytometry (cell cycle analysis, cell death)
# Format: cell-based
# Settings: melanoma cells treated in vitro
# Procedure: Tumor cells (B16.F1, NIT-1, or MCF7) were thawed from liquid nitrogen. The tumor cells were transferred into a 15 milliliter (ml) conical tube using a sterile bulb pipette. Using a balance, the tubes were balanced with cells and spun in the centrifuge. The liquid was removed using the vacuum, leaving the pellet of cells. The cells were mixed using two mls of the RPMI. In a 24 well plate, 1 ml of RPMI was placed in each well. One ml of cells was placed into the first well and the second ml was missed into the second well, then one ml was transferred from the second well into the third. The process was repeated until one ml will remain for the last well (serial dilutions). After two to three days the cells were confluent enough to transfer from a well into a flask. After around 24 hours the treatments were added to the appropriate flasks (control, chloroquine, Avastin, both). After 48 hrs. the cells were stained using lysotracker and propidium idodide. The plate was run in the flow cytometer to check the growth arrest and the amount of lysosomic activity as well as the amount of cell death.
substance,measurement,value
"avastin: humanized monoclonal antibody against VEGF-A, trade name Avastin, Genentech/Roche",growth arrest by cell cycle analysis,growth arresting the melanoma cells in G0-G1 phase
